target: ATP-dependent translocase ABCB1 (Homo sapiens, UniProt P08183)
Sequence (P08183 whole entry): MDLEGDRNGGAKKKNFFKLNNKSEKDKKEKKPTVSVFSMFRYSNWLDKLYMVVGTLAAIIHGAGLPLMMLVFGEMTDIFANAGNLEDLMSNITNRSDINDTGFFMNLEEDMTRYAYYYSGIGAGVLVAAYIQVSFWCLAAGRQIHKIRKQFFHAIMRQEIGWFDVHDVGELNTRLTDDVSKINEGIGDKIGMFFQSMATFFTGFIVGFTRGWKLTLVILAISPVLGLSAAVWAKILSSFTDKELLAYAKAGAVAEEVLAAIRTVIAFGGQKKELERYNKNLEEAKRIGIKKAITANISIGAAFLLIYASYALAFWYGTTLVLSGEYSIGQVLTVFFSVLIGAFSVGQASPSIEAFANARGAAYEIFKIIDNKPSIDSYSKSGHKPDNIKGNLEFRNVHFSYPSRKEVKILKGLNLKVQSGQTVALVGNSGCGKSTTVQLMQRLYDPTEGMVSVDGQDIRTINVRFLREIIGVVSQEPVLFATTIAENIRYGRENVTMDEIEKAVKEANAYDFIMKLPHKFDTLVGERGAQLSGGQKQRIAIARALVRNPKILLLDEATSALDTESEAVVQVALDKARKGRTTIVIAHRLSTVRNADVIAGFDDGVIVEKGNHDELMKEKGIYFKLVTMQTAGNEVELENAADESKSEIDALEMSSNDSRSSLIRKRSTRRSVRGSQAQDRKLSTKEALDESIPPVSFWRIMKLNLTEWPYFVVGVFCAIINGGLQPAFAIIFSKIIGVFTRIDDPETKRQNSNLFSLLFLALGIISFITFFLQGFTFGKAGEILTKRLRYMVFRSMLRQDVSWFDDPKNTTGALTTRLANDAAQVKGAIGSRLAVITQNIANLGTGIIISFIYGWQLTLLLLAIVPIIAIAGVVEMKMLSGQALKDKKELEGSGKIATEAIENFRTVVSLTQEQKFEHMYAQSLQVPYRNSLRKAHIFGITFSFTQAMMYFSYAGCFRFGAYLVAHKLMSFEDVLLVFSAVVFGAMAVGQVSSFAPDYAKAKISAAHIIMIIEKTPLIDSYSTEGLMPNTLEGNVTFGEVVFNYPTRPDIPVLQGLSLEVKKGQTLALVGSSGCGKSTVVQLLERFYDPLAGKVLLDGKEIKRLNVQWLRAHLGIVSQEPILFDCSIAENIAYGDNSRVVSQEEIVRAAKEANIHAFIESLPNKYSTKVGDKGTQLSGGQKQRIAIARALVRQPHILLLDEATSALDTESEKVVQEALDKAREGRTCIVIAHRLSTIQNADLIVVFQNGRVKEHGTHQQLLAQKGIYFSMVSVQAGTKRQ

SMILES | EC50 [µM]
Cc1cccc(N2CCN(C[C@@H](O)COc3cccc(C(=O)CCc4ccccc4)c3)CC2)c1C | 0.138
CC(C)(C)O[C@H](CCc1ccccc1)c1ccccc1OC[C@H](O)CN1CCCCC1 | 0.398
O=C(c1ccccc1)c1ccccc1OC[C@H](O)CN1CCC(O)(c2ccccc2)CC1 | 0.309
O=C(c1ccccc1)c1ccccc1OC[C@H](O)CN1CCN(c2ccc(F)cc2)CC1 | 0.148
CC(=O)c1ccccc1OC[C@H](O)CN1CCC(Cc2ccccc2)CC1 | 0.355
CC(=O)c1ccccc1OC[C@H](O)CN1CCC(O)(c2ccccc2)CC1 | 3.16
Cc1ccccc1N1CCN(C[C@@H](O)COc2ccccc2C(=O)CCc2ccc(Cl)cc2)CC1 | 0.0191
Cc1ccc(CCC(=O)c2ccccc2OC[C@H](O)CN2CCN(c3ccccc3C)CC2)cc1 | 0.0182
COc1ccc(CCC(=O)c2ccccc2OC[C@H](O)CN2CCN(c3ccccc3C)CC2)cc1 | 0.0141
Cc1ccccc1N1CCN(C[C@@H](O)COc2ccccc2C(=O)CCc2ccc(Cl)c(Cl)c2)CC1 | 0.038
CC(=O)O[C@@H](COc1ccccc1C(=O)CCc1ccccc1)CN1CCCCC1 | 0.339
COC(=O)c1ccc(NC[C@@H](O)COc2ccccc2C(=O)CCc2ccccc2)cc1 | 1.55
Cc1ccccc1N1CCN(C[C@@H](O)COc2ccc(Cl)cc2C(=O)CCc2ccccc2)CC1 | 0.0589
COc1ccc(OC[C@H](O)CN2CCN(c3ccccc3C)CC2)c(C(=O)CCc2ccccc2)c1 | 0.178
Cc1ccc(OC[C@H](O)CN2CCN(c3ccccc3C)CC2)c(C(=O)CCc2ccccc2)c1 | 0.0257
O=C(CCc1ccccc1)c1ccccc1OC[C@H](O)CNc1ccc(C(F)(F)F)cc1 | 8.51
O=C(CCc1ccccc1)c1ccccc1OC[C@H](O)CNc1ccc([N+](=O)[O-])cc1 | 2.57
CCC(=O)N(Cc1ccccc1)C[C@@H](O)COc1ccccc1C(=O)CCc1ccccc1 | 1.66
CCCN(C[C@@H](O)COc1ccccc1C(=O)CCc1ccccc1)C(=O)c1ccccc1 | 1.7
O=C(CCc1cccc2ccccc12)c1ccccc1OC[C@H](O)CN1CCOCC1 | 0.724
CC(C)N(C[C@@H](O)COc1ccccc1C(=O)CCc1cccc2ccccc12)C(C)C | 0.468
CCC(=O)c1ccccc1OC[C@H](O)CN1CCC(O)(c2ccccc2)CC1 | 0.302
O=C(CCc1cccc2ccccc12)c1ccccc1OC[C@H](O)CN1CCC(O)(c2ccccc2)CC1 | 0.0759
CC(=O)c1cccc(OC[C@H](O)CN2CCOCC2)c1 | 129
CC(=O)c1cccc(OC[C@H](O)CN2CCCCC2)c1 | 9.12
CC(=O)c1cccc(OC[C@H](O)CN2CCN(c3ccc(F)cc3)CC2)c1 | 10

SMILES | EC50 [µM]
O=C(CCc1ccccc1)c1ccccc1OC[C@H](O)CN1CCN(C(=O)c2ccccc2)CC1 | 0.129
CC(=O)c1ccc(OC[C@H](O)CN2CCCCC2)cc1 | 49
CC(=O)c1ccc(OC[C@H](O)CN2CCN(c3ccc(F)cc3)CC2)cc1 | 11.7
CC(=O)c1ccc(OC[C@H](O)CN2CCOCC2)cc1 | 302
CN(CCN(C)S(=O)(=O)c1cccc2c(N(C)C)cccc12)C[C@@H](O)COc1ccccc1C(=O)c1ccccc1 | 1.82
CCCNC[C@@H](O)COc1ccc(C)cc1C(=O)c1ccccc1 | 1.2
CC(C)[C@H](NC[C@@H](O)COc1ccccc1C(=O)CCc1ccccc1)c1ccccc1 | 0.209
O=C(CCc1ccccc1)c1ccccc1OC[C@H](O)CN[C@@H](c1ccccc1)C1CCCCC1 | 0.145
Cc1ccccc1N1CCN(C[C@@H](O)COc2cc(Cl)c(Cl)cc2C(=O)CCc2ccccc2)CC1 | 0.017
O=C1CCc2cccc(OC[C@H](O)CN3CCCCC3)c21 | 9.77
CC(C)(C)[C@@H](NC[C@@H](O)COc1ccccc1C(=O)CCc1ccccc1)c1ccccc1 | 0.295
O=C1CCc2c(OC[C@H](O)CN3CCCCC3)cccc21 | 11.2
O=C1c2c(cccc2OC[C@H](O)CN2CCCCC2)C[C@@H]1Cc1ccccc1 | 0.214
O=C1c2cccc(OC[C@H](O)CN3CCCCC3)c2C[C@H]1Cc1ccccc1 | 0.141
Cc1cccc(N2CCN(C[C@@H](O)COc3cccc4c3C(=O)[C@@H](Cc3ccccc3)C4)CC2)c1C | 0.166
COc1ccc(N2CCN(C[C@@H](O)COc3cccc4c3C(=O)[C@@H](Cc3ccccc3)C4)CC2)cc1 | 0.389
O=C1c2c(cccc2OC[C@H](O)CN2CCOCC2)C[C@@H]1Cc1ccccc1 | 0.295
O=C1C[C@H](CN2CCCCC2)Oc2ccccc21 | 178
O=C1C[C@H](CN2CCN(c3ccc(F)cc3)CC2)Oc2ccccc21 | 17.8
Cc1cccc(N2CCN(C[C@H]3CC(=O)c4ccccc4O3)CC2)c1C | 2.04
O=C1C[C@H](CN2CCN(Cc3ccccc3)CC2)Oc2ccccc21 | 8.91
O=C1C[C@H](CN2CCOCC2)Oc2ccccc21 | 1260
CC(=O)c1ccc(OC[C@H](O)CN2CCN(c3ccccc3C)CC2)cc1 | 1.55
CC(=O)c1cccc(OC[C@H](O)CN2CCN(c3cccc(C)c3C)CC2)c1 | 0.38
O=C([C@@H]1Oc2ccccc2[C@@H]1CCc1ccccc1)N1CCCCC1 | 6.61
C[C@H]1c2ccccc2O[C@H]1C(=O)N1CCCCC1 | 105

SMILES | EC50 [µM]
c1ccc(CC[C@H]2c3ccccc3O[C@H]2CN2CCCCC2)cc1 | 1.62
C[C@H]1c2ccccc2O[C@H]1CN1CCCCC1 | 49
CC(=O)c1cccc(OC[C@H](O)CN2CCN(c3ccccc3C)CC2)c1 | 0.537
Cc1cccc(N2CCN(C[C@@H](O)COc3ccc(C(=O)CCc4ccccc4)cc3)CC2)c1C | 0.229
COc1ccc(C(=O)CCc2ccccc2)c(OC[C@H](O)CN2CCN(c3ccccc3C)CC2)c1 | 0.0309
COc1ccc(C(=O)CCc2ccccc2)c(OC[C@H](O)CN2CCCCC2)c1 | 0.295
Cc1ccccc1N1CCN(C[C@@H](O)COc2ccccc2C(=O)CCc2ccc(N(C)C)cc2)CC1 | 0.0129
COc1ccc(OC[C@H](O)CN2CCN(c3ccccc3C)CC2)c(C(C)=O)c1 | 0.851
COc1ccc(C(=O)CCc2ccc(N(C)C)cc2)c(OC[C@H](O)CN2CCN(c3ccccc3C)CC2)c1 | 0.0398
CC(=O)c1ccc(OC[C@H](O)CNCCC(c2ccccc2)c2ccccc2)cc1 | 0.178
Cc1ccccc1N1CCN(C[C@@H](O)COc2cccc(C(=O)CCc3ccccc3)c2)CC1 | 0.0741
O=C(CCc1ccccc1)c1cccc(OC[C@H](O)CNCCC(c2ccccc2)c2ccccc2)c1 | 0.191
O=C(CCc1ccccc1)c1cccc(OC[C@H](O)CN2CCOCC2)c1 | 3.47
O=C(CCc1ccccc1)c1ccc(OC[C@H](O)CNCCC(c2ccccc2)c2ccccc2)cc1 | 0.501
O=C(CCc1ccccc1)c1cc(OCc2ccccc2)ccc1OC[C@H](O)CN1CCC(O)(c2ccccc2)CC1 | 0.0851
CC(C)(C)OC(=O)N1CCN(C[C@@H](O)COc2ccccc2C(=O)c2ccccc2)CC1 | 0.871
CC(=O)c1ccccc1OC[C@H](O)CN(C(C)C)C(C)C | 10
O[C@@H](COc1ccccc1[C@@H](O)CCc1ccccc1)CN1CCN(Cc2ccccc2)CC1 | 0.186
CO[C@@H](CCc1ccccc1)c1ccccc1OC[C@H](O)CN1CCN(Cc2ccccc2)CC1 | 0.0794
Cc1ccccc1N1CCN(C[C@@H](O)COc2ccccc2[C@@H](O)CCc2ccccc2)CC1 | 0.0447
CO[C@@H](CCc1ccccc1)c1ccccc1OC[C@H](O)CN1CCN(c2ccccc2C)CC1 | 0.0363
Cc1cccc(N2CCN(C[C@@H](O)COc3ccccc3[C@@H](O)CCc3ccccc3)CC2)c1C | 0.0832
CCC(=O)c1ccccc1OC[C@H](O)CN1CCN(c2ccc(F)cc2)CC1 | 0.832
CCC(=O)c1ccccc1OC[C@H](O)CN(C(C)C)C(C)C | 4.27
CCC(=O)c1ccccc1OC[C@H](O)CN1CCN(Cc2ccccc2)CC1 | 1.45
CCC(=O)c1ccccc1OC[C@H](O)CNCCC(c1ccccc1)c1ccccc1 | 0.12

SMILES | EC50 [µM]
CC(=O)c1cc(C)ccc1OC[C@H](O)CN1CCOCC1 | 12.6
CC(=O)c1cc(C)ccc1OC[C@H](O)CN(C(C)C)C(C)C | 6.17
CC(=O)c1cc(C)ccc1OC[C@H](O)CN1CCN(c2ccc(F)cc2)CC1 | 3.63
Cc1ccc(OC[C@H](O)CN2CCCCC2)c(C(=O)CCc2ccccc2)c1 | 0.263
Cc1ccc(OC[C@H](O)CN2CCOCC2)c(C(=O)CCc2ccccc2)c1 | 1.66
Cc1ccc(OC[C@H](O)CN2CCN(c3ccc(F)cc3)CC2)c(C(=O)CCc2ccccc2)c1 | 0.245
Cc1ccc(OC[C@H](O)CN2CCN(c3cccc(C)c3C)CC2)c(C(=O)CCc2ccccc2)c1 | 0.0562
Cc1ccc(NC(=S)N2CCN(C[C@@H](O)COc3ccccc3C(=O)c3ccccc3)CC2)cc1 | 0.38
Cc1ccc(NC(=O)N2CCN(C[C@@H](O)COc3ccccc3C(=O)c3ccccc3)CC2)cc1 | 0.479
O=C(c1ccccc1)c1ccccc1OC[C@@H](O)CN1CCN(C[C@@H](O)COc2ccccc2C(=O)c2ccccc2)CC1 | 0.0525
CC(=O)c1cc(C)ccc1OC[C@H](O)CN1CCN(C[C@H](O)COc2ccccc2C(=O)c2ccccc2)CC1 | 9.55
COc1ccc(N2CCN(C[C@@H](O)COc3ccc(C)cc3C(C)=O)CC2)cc1 | 3.47
CC(=O)c1cc(C)ccc1OC[C@H](O)CN1CCN(C(=O)Nc2ccc(C)cc2)CC1 | 7.41
CC(=O)c1cc(C)ccc1OC[C@H](O)CN1CCN(c2ccc(C)cc2)CC1 | 3.16
O=C(c1ccccc1)c1ccc(OC[C@H](O)CN2CCN(c3ccc(F)cc3)CC2)cc1 | 0.977
Cc1ccccc1N1CCN(C[C@@H](O)COc2ccc(C(=O)c3ccccc3)cc2)CC1 | 0.501
Cc1cccc(N2CCN(C[C@@H](O)COc3ccc(C(=O)c4ccccc4)cc3)CC2)c1C | 0.661
CCC(=O)c1ccc(OC[C@H](O)CN2CCN(c3cccc(C)c3C)CC2)cc1 | 1.41
CCC(=O)c1ccc(OC[C@H](O)CN2CCN(c3ccc(F)cc3)CC2)cc1 | 1.45
CCC(=O)c1ccc(OC[C@H](O)CN2CCN(c3ccccc3C)CC2)cc1 | 0.871
CCC(=O)c1ccc(OC[C@H](O)CN2CCCCC2)cc1 | 33.1
O=C(CCc1cccc2ccccc12)c1ccc(OC[C@H](O)CN2CCOCC2)cc1 | 1.55
O=C(c1ccccc1)c1ccccc1OC[C@H](O)CN1CCOCC1 | 13.5
